Data on 14 compounds can be found in US20260216115A1, “TRETINOIN-CONTAINING COMPOSITION, PREPARATION METHOD AND USE THEREOF” (NANJING INDETEK LABORATORY CO., LTD., priority 2022, published 2026).

Series [1] can be described thus: Water solubility/water dilution stability of tretinoin complexes. It counts as physicochemical. The note with it: water added until the solution appeared turbid. On the procedure:
Weighing was performed, and calculation was performed to obtain the limiting water content of the complexes.

Series [2] in a line: Complex formation at different molar ratios, state at room temperature. It counts as physicochemical. Here is the method: Referring to the preparation process in 1.2.1, complexes were prepared using tretinoin and diethanolamine at different ratios (as shown in the table below).
Referring to the preparation process in 1.2 in Example 1, diethanolamine was replaced with triethanolamine, and complexes were prepared using tretinoin and triethanolamine at different ratios (as shown in the table below).

The nature of series [3]: Anti-solvent addition test. It counts as physicochemical. The note with it: room temperature, about 4 days. Here is the method:
The corresponding volume of good solvent was added to an appropriate amount of 2 [DEA][RA] to obtain a clear solution. If there were two corresponding anti-solvents, the clear solution was divided into two parts. At room temperature (about 22° C.), the anti-solvent was slowly added to the clear solution with stirring until solid precipitation was observed (the maximum volume of anti-solvent added was 1.5 mL). If the solid precipitation was observed, the addition of anti-solvent was stopped. After about 4 days of stirring at room temperature, a clear solution was obtained or oiling-out phenomenon was observed, without solid form substance obtained.

A short description of series [4]: Differential scanning calorimetry (DSC, mDSC). The format is physicochemical. Background: DSC measures the heat that a sample takes up or gives off during a temperature scan.
Series [5] in a line: Solubility of the complex in different medium systems (oily mediums). The format is physicochemical. An excerpt: 6.1 Study on Solubility of the Tretinoin-Alcoholamine Compound Complex in Different Medium Systems
Series [6] can be described thus: Compatibility of gel matrix and complex. The format is physicochemical. The note with it: 0.17% (0.1% in terms of RA) added to the Carbopol 980 gel matrix.
The nature of series [7]: Crystallization induction: cooling test. The format is physicochemical. The note with it: 3 days. Here is the method: About 40 mg of 2 [DEA][RA] was dissolved in the respective solvent at 50° C., a clear solution was obtained and divided equally in 2 groups. After cooling according to the respective procedure, and equilibrating at low temperature for 3 days, no solid form substance was obtained.

Series [8] in a line: Dynamic moisture sorption (DVS) with PLM before and after. It counts as physicochemical.
Series [9] in a line: Liquid nitrogen freezing test. The format is physicochemical. The note with it: frozen about 1 min in liquid nitrogen, rewarmed to room temperature (about 22° C.). On the procedure:
After freezing for about 1 min, the sample was taken out, yielding a reddish-brown transparent solid (hard and brittle). […] The experimental process was as follows: freezing with the spoon, fragmenting, and then melting

For series [10] the following is noted: 2020 edition of Chinese Pharmacopoeia (Part II); cited from earlier work.
Where [11] appears, read: tretinoin-diethanolamine complexes, molar ratio [DEA]:[RA] 2:1 to 10:1.
The mark [12] stands for this setting: tretinoin-triethanolamine complexes, molar ratio TEA:RA 7:1 to 10:1.

As for `CC1=C(/C=C/C(C)=C/C=C/C(C)=C/C(=O)O)C(C)(C)CCC1.OCCNCCO.OCCNCCO.OCCNCCO` [3[DEA][RA]], the “Maximum water content (water dilution stability)” value (shortened to “Maximum water content”) in series [1] was 93.7%. Moreover, in series [2] (setting [11]), the “State at room temperature” value was “Reddish-brown clear liquid”.

Take `CC1=C(/C=C/C(C)=C/C=C/C(C)=C/C(=O)O)C(C)(C)CCC1.OCCNCCO.OCCNCCO` [2[DEA][RA]]: the “Anti-solvent addition test results” value is listed as “Clear” in [3] (test-A, good solvent DMSO, anti-solvent ACN 1.5 mL); “Clear” in series [3] (test-B1, good solvent n-propanol, anti-solvent ACN 1.5 mL); “Clear” in series [3] (test-B2, good solvent n-propanol, anti-solvent n-heptane 1.5 mL); “Clear” in series [3] (test-D1, good solvent THF, anti-solvent ACN 1.5 mL); “Clear” in [3] (test-E1, good solvent IPA, anti-solvent ACN 1.5 mL). In series [4] (−25° C. to 25° C.), the “mDSC glass transition temperature” value is “no glass transition temperature is observed”. In [4] (−25° C. to 40° C.), the “DSC exothermic or endothermic signals” value is “no exothermic or endothermic signals”. Further, the “Solubility in oily medium” value in series [5] (Isopropyl myristate), in series [5] (Laurocapram), in [5] (Medium-chain triglyceride) and in series [5] (Soybean oil) was “Insoluble” throughout. In addition, the “Compatibility of complex with gel matrix” value in series [6] is given as “precipitation of yellow solids”. The Cooling test results in [7] (test-A1, n-propanol, 50° C.→5° C.) was “Clear”; in series [7] (test-A2, n-propanol, 50° C.→−20° C.), “Clear”; in series [7] (test-C1, 1,4-dioxane, 50° C.→5° C.) it was “Clear”; in series [7] (test-C2, 1,4-dioxane, 50° C.→−20° C., *melting immediately upon taking out) it was “Frozen, yellow opaque*”; in [7] (test-D1, DMSO, 50° C.→5° C.), “Clear”. Further, the “Hygroscopicity (DVS)” value in series [8] (25° C., 0% RH-95% RH-0% RH) is reported as “certain hygroscopic properties”. The “Crystalline particles by PLM before and after DVS” value in series [8] (room temperature) is given as “no crystalline particles”. Also, the “Liquid nitrogen freezing test result upon rewarming” value in [9] is listed as “the sample melted immediately”. Further, in [1], the “Maximum water content” value worked out at 91.4%. In addition, the “State at room temperature” value in series [2] (setting [11]) was “Reddish-brown clear liquid”.

As for `CC1=C(/C=C/C(C)=C/C=C/C(C)=C/C(=O)O)C(C)(C)CCC1.OCCNCCO.OCCNCCO.OCCNCCO.OCCNCCO.OCCNCCO.OCCNCCO.OCCNCCO.OCCNCCO.OCCNCCO` [9[DEA][RA]], in [2] (setting [11]), the “State at room temperature” value was “Reddish-brown clear liquid”.

Consider `CC1=C(/C=C/C(C)=C/C=C/C(C)=C/C(=O)O)C(C)(C)CCC1.OCCN(CCO)CCO.OCCN(CCO)CCO.OCCN(CCO)CCO.OCCN(CCO)CCO.OCCN(CCO)CCO.OCCN(CCO)CCO.OCCN(CCO)CCO.OCCN(CCO)CCO.OCCN(CCO)CCO` [9[TEA][RA]], for which the “State at room temperature” value in series [2] (setting [12]) is “Reddish-brown clear liquid”.

Take `CC1=C(/C=C/C(C)=C/C=C/C(C)=C/C(=O)O)C(C)(C)CCC1.OCCNCCO.OCCNCCO.OCCNCCO.OCCNCCO.OCCNCCO.OCCNCCO.OCCNCCO.OCCNCCO.OCCNCCO.OCCNCCO` [10[DEA][RA]]: the “State at room temperature” value in series [2] (setting [11]) is recorded as “Reddish-brown clear liquid”.

On to `CC1=C(/C=C/C(C)=C/C=C/C(C)=C/C(=O)O)C(C)(C)CCC1.OCCNCCO.OCCNCCO.OCCNCCO.OCCNCCO.OCCNCCO.OCCNCCO.OCCNCCO.OCCNCCO` [8[DEA][RA]], for which the “State at room temperature” value in series [2] (setting [11]) was “Reddish-brown clear liquid”.

For the compound `CC1=C(/C=C/C(C)=C/C=C/C(C)=C/C(=O)O)C(C)(C)CCC1.OCCNCCO.OCCNCCO.OCCNCCO.OCCNCCO.OCCNCCO` [5[DEA][RA]], the “State at room temperature” value in series [2] (setting [11]) is recorded as “Reddish-brown clear liquid”.

As for `CC1=C(/C=C/C(C)=C/C=C/C(C)=C/C(=O)O)C(C)(C)CCC1.CC1=C(/C=C/C(C)=C/C=C/C(C)=C/C(=O)O)C(C)(C)CCC1.OCCNCCO.OCCNCCO.OCCNCCO.OCCNCCO.OCCNCCO` [2.5[DEA][RA]], the “Maximum water content” value in series [1] was 92.5%. Moreover, the “State at room temperature” value in series [2] (setting [11]) is listed as “Reddish-brown clear liquid”.

Consider `CC1=C(/C=C/C(C)=C/C=C/C(C)=C/C(=O)O)C(C)(C)CCC1.OCCNCCO.OCCNCCO.OCCNCCO.OCCNCCO.OCCNCCO.OCCNCCO.OCCNCCO` [7[DEA][RA]], for which, in [2] (setting [11]), the “State at room temperature” value is reported as “Reddish-brown clear liquid”.

As to `CC1=C(/C=C/C(C)=C/C=C/C(C)=C/C(=O)O)C(C)(C)CCC1.OCCNCCO.OCCNCCO.OCCNCCO.OCCNCCO.OCCNCCO.OCCNCCO` [6[DEA][RA]], the “State at room temperature” value in series [2] (setting [11]) is reported as “Reddish-brown clear liquid”.

Consider `CC1=C(/C=C/C(C)=C/C=C/C(C)=C/C(=O)O)C(C)(C)CCC1` [tretinoin], for which the “Solubility in water” value in [10] is “extremely insoluble in water”.

For the compound `CC1=C(/C=C/C(C)=C/C=C/C(C)=C/C(=O)O)C(C)(C)CCC1.OCCN(CCO)CCO.OCCN(CCO)CCO.OCCN(CCO)CCO.OCCN(CCO)CCO.OCCN(CCO)CCO.OCCN(CCO)CCO.OCCN(CCO)CCO.OCCN(CCO)CCO` [8[TEA][RA]], the “State at room temperature” value was “Reddish-brown clear liquid” in [2] (setting [12]) and “reddish-brown transparent liquid” in series [2] (tretinoin-triethanolamine complexes, molar ratio TEA:RA 7:1 to 10:1, listed as 8 [TEA][RA]).

As to `CC1=C(/C=C/C(C)=C/C=C/C(C)=C/C(=O)O)C(C)(C)CCC1.OCCNCCO.OCCNCCO.OCCNCCO.OCCNCCO` [4[DEA][RA]], the “Maximum water content” value in [1] is listed as 94.1%. Besides, in series [2] (setting [11]), the “State at room temperature” value is listed as “Reddish-brown clear liquid”.

Consider `CC1=C(/C=C/C(C)=C/C=C/C(C)=C/C(=O)O)C(C)(C)CCC1.OCCN(CCO)CCO.OCCN(CCO)CCO.OCCN(CCO)CCO.OCCN(CCO)CCO.OCCN(CCO)CCO.OCCN(CCO)CCO.OCCN(CCO)CCO.OCCN(CCO)CCO.OCCN(CCO)CCO.OCCN(CCO)CCO` [10[TEA][RA]], for which the “State at room temperature” value in [2] (setting [12]) is reported as “Reddish-brown clear liquid”.
